Assay results as given in PMC6422671 (British Journal of Clinical Pharmacology, 2019).

Test: Vital signs; data mean (standard deviation)
Type: in vivo, healthy men
Source text: Data are mean (standard deviation)

Structure (SMILES): C[C@@H](N)c1cc(Cl)ccc1Cn1c(=S)[nH]c(=O)c2[nH]ccc21 [AZD4831]
- DBP (5 mg fasted, 0.5 h): 71 (7) mmHg
- Pulse (5 mg fasted, 0.5 h): 61 (4) bpm
- SBP (5 mg fasted, 0.5 h): 116 (10) mmHg
- DBP (5 mg fasted, 1 h): 71 (7) mmHg
- Pulse (5 mg fasted, 1 h): 61 (5) bpm
- SBP (5 mg fasted, 1 h): 114 (8) mmHg
- DBP (5 mg fasted, 2 h): 71 (5) mmHg
- Pulse (5 mg fasted, 2 h): 60 (4) bpm
- SBP (5 mg fasted, 2 h): 119 (10) mmHg
- DBP (5 mg fasted, 3 h): 72 (9) mmHg
- Pulse (5 mg fasted, 3 h): 60 (4) bpm
- SBP (5 mg fasted, 3 h): 119 (12) mmHg
- DBP (5 mg fasted, 4 h): 71 (7) mmHg
- Pulse (5 mg fasted, 4 h): 64 (5) bpm
- SBP (5 mg fasted, 4 h): 118 (9) mmHg
- DBP (5 mg fasted, 6 h): 69 (8) mmHg
- Pulse (5 mg fasted, 6 h): 68 (5) bpm
- SBP (5 mg fasted, 6 h): 118 (11) mmHg
- DBP (5 mg fasted, 8 h): 68 (5) mmHg
- Pulse (5 mg fasted, 8 h): 62 (5) bpm
- SBP (5 mg fasted, 8 h): 117 (9) mmHg
- DBP (5 mg fasted, 12 h): 69 (9) mmHg
- Pulse (5 mg fasted, 12 h): 68 (4) bpm
- SBP (5 mg fasted, 12 h): 118 (13) mmHg
- DBP (5 mg fasted, 24 h): 69 (5) mmHg
- Pulse (5 mg fasted, 24 h): 59 (5) bpm
- SBP (5 mg fasted, 24 h): 112 (5) mmHg
- DBP (5 mg fasted, 36 h): 69 (4) mmHg
- Pulse (5 mg fasted, 36 h): 68 (5) bpm
- SBP (5 mg fasted, 36 h): 119 (6) mmHg
- DBP (5 mg fasted, 48 h): 70 (4) mmHg
- Pulse (5 mg fasted, 48 h): 64 (9) bpm
- SBP (5 mg fasted, 48 h): 116 (8) mmHg
- DBP (15 mg fasted, 0.5 h): 68 (4) mmHg
- Pulse (15 mg fasted, 0.5 h): 58 (9) bpm
- SBP (15 mg fasted, 0.5 h): 115 (7) mmHg
- DBP (15 mg fasted, 1 h): 67 (4) mmHg
- Pulse (15 mg fasted, 1 h): 61 (9) bpm
- SBP (15 mg fasted, 1 h): 115 (8) mmHg
- DBP (15 mg fasted, 2 h): 65 (2) mmHg
- Pulse (15 mg fasted, 2 h): 58 (6) bpm
- SBP (15 mg fasted, 2 h): 113 (4) mmHg
- DBP (15 mg fasted, 3 h): 65 (3) mmHg
- Pulse (15 mg fasted, 3 h): 58 (4) bpm
- SBP (15 mg fasted, 3 h): 112 (5) mmHg
- DBP (15 mg fasted, 4 h): 66 (6) mmHg
- Pulse (15 mg fasted, 4 h): 59 (8) bpm
- SBP (15 mg fasted, 4 h): 113 (5) mmHg
- DBP (15 mg fasted, 6 h): 65 (2) mmHg
- Pulse (15 mg fasted, 6 h): 68 (9) bpm
- SBP (15 mg fasted, 6 h): 119 (9) mmHg
- DBP (15 mg fasted, 8 h): 64 (2) mmHg
- Pulse (15 mg fasted, 8 h): 63 (11) bpm
- SBP (15 mg fasted, 8 h): 116 (7) mmHg
- DBP (15 mg fasted, 12 h): 64 (4) mmHg
- Pulse (15 mg fasted, 12 h): 69 (10) bpm
- SBP (15 mg fasted, 12 h): 119 (5) mmHg
- DBP (15 mg fasted, 24 h): 67 (2) mmHg
- Pulse (15 mg fasted, 24 h): 62 (7) bpm
- SBP (15 mg fasted, 24 h): 113 (4) mmHg
- DBP (15 mg fasted, 36 h): 63 (4) mmHg
- Pulse (15 mg fasted, 36 h): 73 (9) bpm
- SBP (15 mg fasted, 36 h): 118 (5) mmHg
- DBP (15 mg fasted, 48 h): 66 (5) mmHg
- Pulse (15 mg fasted, 48 h): 65 (12) bpm
- SBP (15 mg fasted, 48 h): 114 (7) mmHg
- DBP (45 mg fasted, 0.5 h): 73 (14) mmHg
- Pulse (45 mg fasted, 0.5 h): 59 (11) bpm
- SBP (45 mg fasted, 0.5 h): 122 (13) mmHg
- DBP (45 mg fasted, 1 h): 72 (14) mmHg
- Pulse (45 mg fasted, 1 h): 57 (10) bpm
- SBP (45 mg fasted, 1 h): 125 (12) mmHg
- DBP (45 mg fasted, 2 h): 69 (15) mmHg
- Pulse (45 mg fasted, 2 h): 59 (10) bpm
- SBP (45 mg fasted, 2 h): 122 (17) mmHg
- DBP (45 mg fasted, 3 h): 70 (13) mmHg
- Pulse (45 mg fasted, 3 h): 60 (8) bpm
- SBP (45 mg fasted, 3 h): 120 (14) mmHg
- DBP (45 mg fasted, 4 h): 69 (16) mmHg
- Pulse (45 mg fasted, 4 h): 58 (8) bpm
- SBP (45 mg fasted, 4 h): 121 (13) mmHg
- DBP (45 mg fasted, 6 h): 66 (7) mmHg
- Pulse (45 mg fasted, 6 h): 61 (10) bpm
- SBP (45 mg fasted, 6 h): 120 (9) mmHg
- DBP (45 mg fasted, 8 h): 68 (15) mmHg
- Pulse (45 mg fasted, 8 h): 59 (11) bpm
- SBP (45 mg fasted, 8 h): 116 (11) mmHg
- DBP (45 mg fasted, 12 h): 68 (11) mmHg
- Pulse (45 mg fasted, 12 h): 63 (12) bpm
- SBP (45 mg fasted, 12 h): 124 (12) mmHg
- DBP (45 mg fasted, 24 h): 71 (11) mmHg
- Pulse (45 mg fasted, 24 h): 58 (11) bpm
- SBP (45 mg fasted, 24 h): 118 (9) mmHg
- DBP (45 mg fasted, 36 h): 66 (14) mmHg
- Pulse (45 mg fasted, 36 h): 66 (11) bpm
- SBP (45 mg fasted, 36 h): 121 (9) mmHg
- DBP (45 mg fasted, 48 h): 69 (11) mmHg
- Pulse (45 mg fasted, 48 h): 64 (13) bpm
- SBP (45 mg fasted, 48 h): 120 (10) mmHg
- DBP (45 mg fed, 0.5 h): 66 (16) mmHg
- Pulse (45 mg fed, 0.5 h): 63 (6) bpm
- SBP (45 mg fed, 0.5 h): 121 (15) mmHg
- DBP (45 mg fed, 1 h): 65 (11) mmHg
- Pulse (45 mg fed, 1 h): 66 (11) bpm
- SBP (45 mg fed, 1 h): 122 (16) mmHg
- DBP (45 mg fed, 2 h): 66 (18) mmHg
- Pulse (45 mg fed, 2 h): 64 (9) bpm
- SBP (45 mg fed, 2 h): 120 (12) mmHg
- DBP (45 mg fed, 3 h): 69 (11) mmHg
- Pulse (45 mg fed, 3 h): 64 (9) bpm
- SBP (45 mg fed, 3 h): 125 (13) mmHg
- DBP (45 mg fed, 4 h): 67 (15) mmHg
- Pulse (45 mg fed, 4 h): 62 (10) bpm
- SBP (45 mg fed, 4 h): 123 (17) mmHg
- DBP (45 mg fed, 6 h): 70 (15) mmHg
- Pulse (45 mg fed, 6 h): 64 (8) bpm
- SBP (45 mg fed, 6 h): 120 (7) mmHg
- DBP (45 mg fed, 8 h): 71 (17) mmHg
- Pulse (45 mg fed, 8 h): 59 (9) bpm
- SBP (45 mg fed, 8 h): 121 (14) mmHg
- DBP (45 mg fed, 12 h): 69 (15) mmHg
- Pulse (45 mg fed, 12 h): 63 (10) bpm
- SBP (45 mg fed, 12 h): 124 (8) mmHg
- DBP (45 mg fed, 24 h): 69 (12) mmHg
- Pulse (45 mg fed, 24 h): 57 (9) bpm
- SBP (45 mg fed, 24 h): 114 (9) mmHg
- DBP (45 mg fed, 36 h): 71 (15) mmHg
- Pulse (45 mg fed, 36 h): 62 (9) bpm
- SBP (45 mg fed, 36 h): 127 (9) mmHg
- DBP (45 mg fed, 48 h): 73 (13) mmHg
- Pulse (45 mg fed, 48 h): 57 (4) bpm
- SBP (45 mg fed, 48 h): 116 (7) mmHg
- DBP (135 mg fasted, 0.5 h): 69 (5) mmHg
- Pulse (135 mg fasted, 0.5 h): 59 (6) bpm
- SBP (135 mg fasted, 0.5 h): 113 (8) mmHg
- DBP (135 mg fasted, 1 h): 70 (4) mmHg
- Pulse (135 mg fasted, 1 h): 61 (9) bpm
- SBP (135 mg fasted, 1 h): 110 (5) mmHg
- DBP (135 mg fasted, 2 h): 68 (6) mmHg
- Pulse (135 mg fasted, 2 h): 59 (7) bpm
- SBP (135 mg fasted, 2 h): 113 (10) mmHg
- DBP (135 mg fasted, 3 h): 68 (6) mmHg
- Pulse (135 mg fasted, 3 h): 59 (6) bpm
- SBP (135 mg fasted, 3 h): 113 (7) mmHg
- DBP (135 mg fasted, 4 h): 69 (6) mmHg
- Pulse (135 mg fasted, 4 h): 60 (7) bpm
- SBP (135 mg fasted, 4 h): 116 (8) mmHg
- DBP (135 mg fasted, 6 h): 66 (6) mmHg
- Pulse (135 mg fasted, 6 h): 67 (8) bpm
- SBP (135 mg fasted, 6 h): 113 (10) mmHg
- DBP (135 mg fasted, 8 h): 70 (6) mmHg
- Pulse (135 mg fasted, 8 h): 62 (4) bpm
- SBP (135 mg fasted, 8 h): 113 (8) mmHg
- DBP (135 mg fasted, 12 h): 69 (7) mmHg
- Pulse (135 mg fasted, 12 h): 70 (5) bpm
- SBP (135 mg fasted, 12 h): 119 (9) mmHg
- DBP (135 mg fasted, 24 h): 69 (3) mmHg
- Pulse (135 mg fasted, 24 h): 65 (9) bpm
- SBP (135 mg fasted, 24 h): 115 (7) mmHg
- DBP (135 mg fasted, 36 h): 67 (6) mmHg
- Pulse (135 mg fasted, 36 h): 73 (7) bpm
- SBP (135 mg fasted, 36 h): 118 (12) mmHg
- DBP (135 mg fasted, 48 h): 71 (5) mmHg
- Pulse (135 mg fasted, 48 h): 67 (9) bpm
- SBP (135 mg fasted, 48 h): 114 (10) mmHg
- DBP (405 mg fasted, 0.5 h): 70 (7) mmHg
- Pulse (405 mg fasted, 0.5 h): 61 (8) bpm
- SBP (405 mg fasted, 0.5 h): 116 (9) mmHg
- DBP (405 mg fasted, 1 h): 69 (8) mmHg
- Pulse (405 mg fasted, 1 h): 61 (8) bpm
- SBP (405 mg fasted, 1 h): 114 (6) mmHg
- DBP (405 mg fasted, 2 h): 68 (6) mmHg
- Pulse (405 mg fasted, 2 h): 58 (8) bpm
- SBP (405 mg fasted, 2 h): 114 (9) mmHg
- DBP (405 mg fasted, 3 h): 67 (5) mmHg
- Pulse (405 mg fasted, 3 h): 57 (6) bpm
- SBP (405 mg fasted, 3 h): 112 (6) mmHg
- DBP (405 mg fasted, 4 h): 69 (7) mmHg
- Pulse (405 mg fasted, 4 h): 60 (8) bpm
- SBP (405 mg fasted, 4 h): 115 (5) mmHg
- DBP (405 mg fasted, 6 h): 66 (5) mmHg
- Pulse (405 mg fasted, 6 h): 63 (8) bpm
- SBP (405 mg fasted, 6 h): 113 (4) mmHg
- DBP (405 mg fasted, 8 h): 67 (5) mmHg
- Pulse (405 mg fasted, 8 h): 59 (7) bpm
- SBP (405 mg fasted, 8 h): 113 (5) mmHg
- DBP (405 mg fasted, 12 h): 67 (4) mmHg
- Pulse (405 mg fasted, 12 h): 63 (8) bpm
- SBP (405 mg fasted, 12 h): 114 (8) mmHg
- DBP (405 mg fasted, 24 h): 71 (2) mmHg
- Pulse (405 mg fasted, 24 h): 60 (7) bpm
- SBP (405 mg fasted, 24 h): 113 (4) mmHg
- DBP (405 mg fasted, 36 h): 68 (4) mmHg
- Pulse (405 mg fasted, 36 h): 65 (5) bpm
- SBP (405 mg fasted, 36 h): 118 (4) mmHg
- DBP (405 mg fasted, 48 h): 71 (7) mmHg
- Pulse (405 mg fasted, 48 h): 65 (9) bpm
- SBP (405 mg fasted, 48 h): 118 (4) mmHg
- changes in vital signs or electrocardiography parameters (in vivo): no clinically significant changes
